Data on 26 molecules can be found in US20120157471A1, “BENZIMIDAZOLE DERIVATIVES” (PFIZER INC., priority 2009, published 2012).

For one test, the system named is Gli-Luc/MEF cells (Smo). Nature of the test: Gli-Luc/MEF assay (Shh-stimulated luciferase reporter under the Gli response element). Format: cell-based, mouse. To be noted: Mus musculus, MEF, 48 h. A digest of the protocol:
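IC50 derived from luminescence (Bright-Glo) after 48 h at 37° C, 5% CO2, with compound at […] (3-fold dilutions) added together with mouse Shh at 2 μg/mL final. Cells: MEFs from Gli-Luc transgenic mice.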
On the technique in general: A reporter such as luciferase makes a cellular process visible.

Test [1] deals with T1, human Smo (amino acids 181-787) (Homo sapiens, UniProt Q99835).
T1 construct: expressed in transfected cells; membrane preparation
T1 sequence (Q99835 181-787): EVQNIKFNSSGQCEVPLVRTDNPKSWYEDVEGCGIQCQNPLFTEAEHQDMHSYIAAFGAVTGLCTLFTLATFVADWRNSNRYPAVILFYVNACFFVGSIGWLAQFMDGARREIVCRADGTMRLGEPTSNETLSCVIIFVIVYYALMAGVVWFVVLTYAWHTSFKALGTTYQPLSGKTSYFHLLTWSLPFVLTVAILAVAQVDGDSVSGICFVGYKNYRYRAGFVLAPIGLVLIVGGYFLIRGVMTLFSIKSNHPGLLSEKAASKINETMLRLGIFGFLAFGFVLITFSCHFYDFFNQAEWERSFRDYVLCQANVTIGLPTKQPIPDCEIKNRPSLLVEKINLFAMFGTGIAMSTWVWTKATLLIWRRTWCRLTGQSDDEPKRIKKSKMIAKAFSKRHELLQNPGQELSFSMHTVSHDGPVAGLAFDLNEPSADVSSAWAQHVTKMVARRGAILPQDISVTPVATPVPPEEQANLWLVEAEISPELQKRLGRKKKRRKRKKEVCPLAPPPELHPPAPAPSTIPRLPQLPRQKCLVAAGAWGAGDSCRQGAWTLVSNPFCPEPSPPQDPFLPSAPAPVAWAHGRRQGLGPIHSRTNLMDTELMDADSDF
Nature of the test: Smo radioligand competition binding assay (displacement of 3H-PF-03451358 from HEK293 membranes). As to conditions: for inhibition at 0.05 µM: 0.05 μM test compound, displacement of 3H-PF-03451358, read-out: SMO % inh. @ 0.05 μM; for IC50: radioligand competition binding. The procedure, abridged:
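Displacement of 3 nM tritiated PF-03451358 measured by filtration and scintillation counting after 2 h at room temperature, using 40 μg/well HEK293 membranes bearing cell-surface Smo 181-787, pH 7.5 buffer. Specific binding defined against 30 μM unlabelled ligand; IC50 via variable-slope sigmoidal fit.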
(In general: Displacement assays read how much labelled ligand stays bound in the presence of the test substance.)

Molecule `Cn1c(-c2cc(N3CCC(C(=O)N4CCCC4)CC3)ncc2Cl)nc2ccccc21` [Example A-100, 2-{5-chloro-2-[4-(pyrrolidin-1-ylcarbonyl)piperidin-1-yl]pyridin-4-yl}-1-methyl-1H-benzimidazole] gave an IC50 with Gli-Luc/MEF cells (Smo) of 21 nM. In addition, in test [1], the inhibition at 0.05 µM turned out to be 83% and the IC50 worked out at 55 nM.

In the test on Gli-Luc/MEF cells (Smo), `Cn1c(-c2cc(N3CCn4c(nnc4C(F)F)C3)ncc2Cl)nc2ccccc21` [Example A-101, 7-[5-chloro-4-(1-methyl-1H-benzimidazol-2-yl)pyridin-2-yl]-3-(difluoromethyl)-5,6,7,8-tetrahydro[1,2,4]triazolo[4,3-a]pyrazine] registered an IC50 of 95 nM. Moreover, in test [1], the inhibition at 0.05 µM amounted to 81% and the IC50 turned out to be 103 nM.

As to `Cn1c(-c2cc(N3CCC(CO)C3)ncc2Cl)nc2ccccc21` (stereo not shown) [Example A-102, {1-[5-chloro-4-(1-methyl-1H-benzimidazol-2-yl)pyridin-2-yl]pyrrolidin-3-yl}methanol], the IC50 turned out to be 40 nM with Gli-Luc/MEF cells (Smo) and 91 nM in test [1]. Besides, the inhibition at 0.05 µM in test [1] was found to be 80%.

As for `Cn1c(-c2cc(N3CCN(CC(O)CO)CC3)ncc2Cl)nc2ccccc21` (stereo not shown) [Example A-103, 3-{4-[5-chloro-4-(1-methyl-1H-benzimidazol-2-yl)pyridin-2-yl]piperazin-1-yl}propane-1,2-diol], inhibition with Gli-Luc/MEF cells (Smo) was half-maximal at 27 nM (IC50). Further, in test [1], the inhibition at 0.05 µM was determined as 80% and the IC50 amounted to 153 nM.

Regarding `CNS(=O)(=O)C1CCN(c2cc(-c3nc4ccccc4n3C)c(Cl)cn2)C1` (stereo not shown) [Example A-104, 1-[5-chloro-4-(1-methyl-1H-benzimidazol-2-yl)pyridin-2-yl]-N-methylpyrrolidine-3-sulfonamide], in the test with Gli-Luc/MEF cells (Smo), the IC50 turned out to be 23 nM. In test [1], the inhibition at 0.05 µM was determined as 80% and the concentration for half-maximal inhibition (IC50) stood at 37 nM.

For the molecule `Cn1c(-c2cc(N3CCC(O)(c4ccn[nH]4)C3)ncc2Cl)nc2ccccc21` (stereo not shown) [Example A-105, 1-[5-chloro-4-(1-methyl-1H-benzimidazol-2-yl)pyridin-2-yl]-3-(1H-pyrazol-5-yl)pyrrolidin-3-ol], the IC50 in the test on Gli-Luc/MEF cells (Smo) worked out at 24 nM; in test [1] it was 65 nM. Also, in test [1], the inhibition at 0.05 µM is 79%.

In the test with Gli-Luc/MEF cells (Smo), `Cn1c(-c2cc(N3CCn4c(CCCO)nnc4C3)ncc2Cl)nc2ccccc21` [Example A-106, 3-{7-[5-chloro-4-(1-methyl-1H-benzimidazol-2-yl)pyridin-2-yl]-5,6,7,8-tetrahydro[1,2,4]triazolo[4,3-a]pyrazin-3-yl}propan-1-ol] showed an IC50 of 116 nM. In test [1], the inhibition at 0.05 µM worked out at 78% and the IC50 worked out at 217 nM.

`Cn1c(-c2cc(N3CCc4[nH]cnc4C3)ncc2Cl)nc2ccccc21` [Example A-107, 5-[5-chloro-4-(1-methyl-1H-benzimidazol-2-yl)pyridin-2-yl]-4,5,6,7-tetrahydro-1H-imidazo[4,5-c]pyridine]: in the test on Gli-Luc/MEF cells (Smo), the IC50 turned out to be 37 nM. In addition, in test [1], the inhibition at 0.05 µM came out at 77% and the IC50 worked out at 123 nM.

For the molecule `Cn1c(-c2cc(N3C[C@](C)(CO)[C@](C)(CO)C3)ncc2Cl)nc2ccccc21` [Example A-108, {(3R,4S)-1-[5-chloro-4-(1-methyl-1H-benzimidazol-2-yl)pyridin-2-yl]-3,4-dimethylpyrrolidine-3,4-diyl}dimethanol], the IC50 in the test with Gli-Luc/MEF cells (Smo) worked out at 59 nM. Further, in test [1], the inhibition at 0.05 µM stood at 76% and the IC50 turned out to be 109 nM.

As to `Cn1c(-c2cc(N3CCn4cnnc4C3)ncc2Cl)nc2ccccc21` [Example A-109, 7-[5-chloro-4-(1-methyl-1H-benzimidazol-2-yl)pyridin-2-yl]-5,6,7,8-tetrahydro[1,2,4]triazolo[4,3-a]pyrazine], the IC50 with Gli-Luc/MEF cells (Smo) came out at 140 nM. Besides, in test [1], the inhibition at 0.05 µM came out at 75% and the IC50 was found to be 129 nM.

In the case of `Cn1c(-c2cc(N3CCCn4cnc(CO)c4C3)ncc2Cl)nc2ccccc21` [Example A-110, {8-[5-chloro-4-(1-methyl-1H-benzimidazol-2-yl)pyridin-2-yl]-6,7,8,9-tetrahydro-5H-imidazo[1,5-a][1,4]diazepin-1-yl}methanol], in the test with Gli-Luc/MEF cells (Smo), it took 93 nM to reach half-maximal inhibition (IC50). Further, in test [1], the inhibition at 0.05 µM stood at 74% and the IC50 came to 161 nM.

`Cn1c(-c2cc(N3C[C@@H](CO)[C@@H](CCO)C3)ncc2Cl)nc2ccccc21` [Example A-111, 2-[(3R,4S)-1-[5-chloro-4-(1-methyl-1H-benzimidazol-2-yl)pyridin-2-yl]-4-(hydroxymethyl)pyrrolidin-3-yl]ethanol] displayed an IC50 with Gli-Luc/MEF cells (Smo) of 25 nM. For the same molecule, in test [1], the inhibition at 0.05 µM is 73% and the IC50 was found to be 116 nM.

In turn, `Cn1c(-c2cc(N3CCOCC(Cc4ncccn4)C3)ncc2Cl)nc2ccccc21` (stereo not shown) [Example A-112, 2-{5-chloro-2-[6-(pyrimidin-2-ylmethyl)-1,4-oxazepan-4-yl]pyridin-4-yl}-1-methyl-1H-benzimidazole] registered an IC50 with Gli-Luc/MEF cells (Smo) of 116 nM. Besides, in test [1], the inhibition at 0.05 µM is 72% and the IC50 amounted to 159 nM.

`CN1CCN(C2CCN(c3cc(-c4nc5ccccc5n4C)c(Cl)cn3)CC2)CC1` [Example A-113, 2-{5-chloro-2-[4-(4-methylpiperazin-1-yl)piperidin-1-yl]pyridin-4-yl}-1-methyl-1H-benzimidazole]: the values for the IC50 (with Gli-Luc/MEF cells (Smo); in test [1]) were 17 nM and 125 nM, respectively. Moreover, in test [1], the inhibition at 0.05 µM came to 72%.

For the molecule `CNC(=O)c1[nH]nc2c1CN(c1cc(-c3nc4ccccc4n3C)c(Cl)cn1)CC2` [Example A-114, 5-[5-chloro-4-(1-methyl-1H-benzimidazol-2-yl)pyridin-2-yl]-N-methyl-4,5,6,7-tetrahydro-1H-pyrazolo[4,3-c]pyridine-3-carboxamide], the IC50 is 47 nM with Gli-Luc/MEF cells (Smo) and 140 nM in test [1]. In addition, the inhibition at 0.05 µM in test [1] was found to be 71%.

In the test on Gli-Luc/MEF cells (Smo), `Cn1c(-c2cc(N3CCOCC(N4CCC(O)CC4)C3)ncc2Cl)nc2ccccc21` (stereo not shown) [Example A-115, 1-{4-[5-chloro-4-(1-methyl-1H-benzimidazol-2-yl)pyridin-2-yl]-1,4-oxazepan-6-yl}piperidin-4-ol] registered an IC50 of 221 nM. Moreover, the inhibition at 0.05 µM in test [1] turned out to be 69%.

The molecule `Cc1nnc2n1CCN(c1cc(-c3nc4ccccc4n3C)c(Cl)cn1)C2` [Example A-117, 7-[5-chloro-4-(1-methyl-1H-benzimidazol-2-yl)pyridin-2-yl]-3-methyl-5,6,7,8-tetrahydro[1,2,4]triazolo[4,3-a]pyrazine] had an IC50 in the test with Gli-Luc/MEF cells (Smo) of 101 nM. In test [1], the inhibition at 0.05 µM is 68%.

`Cn1c(-c2cc(N3CCC(O)(CN4CCCC4=O)CC3)ncc2Cl)nc2ccccc21` [Example A-118, 1-({1-[5-chloro-4-(1-methyl-1H-benzimidazol-2-yl)pyridin-2-yl]-4-hydroxypiperidin-4-yl}methyl)pyrrolidin-2-one] registered an IC50 in the test on Gli-Luc/MEF cells (Smo) of 110 nM. The inhibition at 0.05 µM in test [1] worked out at 65%.

`Cn1c(-c2cc(N3CCC(N4CCC(O)CC4)CC3)ncc2Cl)nc2ccccc21` [Example A-119, 1′-[5-chloro-4-(1-methyl-1H-benzimidazol-2-yl)pyridin-2-yl]-1,4′-bipiperidin-4-ol] had an IC50 in the test on Gli-Luc/MEF cells (Smo) of 111 nM. In test [1], the inhibition at 0.05 µM turned out to be 64%.

Molecule `Cn1c(-c2cc(N3CC(c4ccn[nH]4)C3)ncc2Cl)nc2ccccc21` [Example A-120, 2-{5-chloro-2-[3-(1H-pyrazol-5-yl)azetidin-1-yl]pyridin-4-yl}-1-methyl-1H-benzimidazole] showed an IC50 with Gli-Luc/MEF cells (Smo) of 114 nM. The inhibition at 0.05 µM in test [1] was determined as 62%.

On to `Cc1cn(C2CN(c3cc(-c4nc5ccccc5n4C)c(Cl)cn3)C2)c(=O)[nH]c1=O` [Example A-121, 1-{1-[5-chloro-4-(1-methyl-1H-benzimidazol-2-yl)pyridin-2-yl]azetidin-3-yl}-5-methylpyrimidine-2,4(1H,3H)-dione], for which the IC50 in the test on Gli-Luc/MEF cells (Smo) was 94 nM. For the same molecule, the inhibition at 0.05 µM in test [1] turned out to be 62%.

Take `Cn1c(-c2cc(N3CCC(O)(c4ccncn4)C3)ncc2Cl)nc2ccccc21` (stereo not shown) [Example A-122, 1-[5-chloro-4-(1-methyl-1H-benzimidazol-2-yl)pyridin-2-yl]-3-pyrimidin-4-ylpyrrolidin-3-ol]: the IC50 in the test on Gli-Luc/MEF cells (Smo) amounted to 38 nM. For the same molecule, the inhibition at 0.05 µM in test [1] turned out to be 59%.

`Cc1nccc(C2(O)CCN(c3cc(-c4nc5ccccc5n4C)c(Cl)cn3)C2)n1` (stereo not shown) [Example A-123, 1-[5-chloro-4-(1-methyl-1H-benzimidazol-2-yl)pyridin-2-yl]-3-(2-methylpyrimidin-4-yl)pyrrolidin-3-ol] showed an IC50 in the test with Gli-Luc/MEF cells (Smo) of 114 nM. Further, in test [1], the inhibition at 0.05 µM turned out to be 59%.

The molecule `Cc1nnc(C)n1C1CCN(c2cc(-c3nc4ccccc4n3C)c(Cl)cn2)CC1` [Example A-124, 2-{5-chloro-2-[4-(3,5-dimethyl-4H-1,2,4-triazol-4-yl)piperidin-1-yl]pyridin-4-yl}-1-methyl-1H-benzimidazole] gave an IC50 in the test on Gli-Luc/MEF cells (Smo) of 52 nM. Also, the inhibition at 0.05 µM in test [1] was found to be 59%.

Turning to `Cn1c(-c2cc(N3CC(c4ccncn4)C3)ncc2Cl)nc2ccccc21` [Example A-125, 2-[5-chloro-2-(3-pyrimidin-4-ylazetidin-1-yl)pyridin-4-yl]-1-methyl-1H-benzimidazole], the midpoint of inhibition in the test with Gli-Luc/MEF cells (Smo), the IC50, lay at 135 nM. The inhibition at 0.05 µM in test [1] came to 57%.

Molecule `Cn1c(-c2cc(N3C[C@@H](O)[C@H](O)C3)ncc2Cl)nc2ccccc21` [Example A-127, (3R,4R)-1-[5-chloro-4-(1-methyl-1H-benzimidazol-2-yl)pyridin-2-yl]pyrrolidine-3,4-diol] displayed an IC50 in the test with Gli-Luc/MEF cells (Smo) of 128 nM. In test [1], the inhibition at 0.05 µM worked out at 57%.

The term IC50 denotes the point on the concentration scale where inhibition reaches its midpoint. Low values mean greater potency, high ones weaker potency.
